These results are taken from US10752612B2, “PLK4 inhibitors” (LUDWIG INSTITUTE FOR CANCER RESEARCH LTD, priority 2015, dated 2020).

The test system of one test is RPE1 cells. Kind of test: Analysis of mitosis and daughter cell fate, RPE1. The format is cell-based, human. Here is the method: (§1) Analysis of mitosis and daughter cell fate. […] Cells were seeded into 96-well cycloolefin plates at 5000 cells/well, 8-10 hours before imaging. Movies were acquired on the CV1000 with a 40×0.95 NA U-PlanApo objective. The imaging chamber was maintained at 37° C. and 5% CO2. Image acquisition and data analysis were performed using CellVoyager software. 20 fields/well were imaged. For HeLa and NIH/3T3 cells, 5×2 μm z-sections in the GFP (25% power, 125 ms, 30% gain) and RFP (25% power, 100 ms, 30% gain) channels were captured in each field, at 5-minute intervals for 24 hours. For RPE1 cells, 5×2 μm z-sections in the GFP (20% power, 100 ms, 30% gain) and RFP (25% power, 100 ms, 30% gain) channels were captured in each field, at 5-minute intervals for 8 hours. To track RPE1 daughter cell fate, imaging was then switched to 3×4 μm z-sections in the RFP channel only, at 10-minute intervals for 48 hours. Mitosis was measured from nuclear envelope breakdown to anaphase onset (or arrest). Results represent combined measurements of 100 mother cells per condition from 2-4 independent experiments.
To study the correlation between mother cell prometaphase duration and daughter cell fate, RPE1 cells co-expressing centrin-GFP and H2B-RFP were seeded into 96-well cycloolefin plates at 5000 cells/well, 8-10 hours before imaging. Cells were treated with 80 nM nocodazole and immediately imaged on the CV1000 system with a 40×0.95 NA U-PlanApo objective. The imaging chamber was maintained at 37° C. and 5% CO2. 20 fields/well were imaged. 5×2 Lm z-sections in the GFP (20% power, 100 ms, 30% gain) and RFP (25% power, 100 ms, 30% gain) channels were captured in each field, at 5-minute intervals for 6 hours. The plate was then removed from the microscope, and wells were washed 6 times with warm medium. The plate was returned to the microscope, and imaging was resumed, capturing 3×4 Lm z-sections in the RFP channel only, at 10-minute intervals for 50 hours. To study the effect of chromosome missegregation on daughter cell fate, cells were treated with 1 LM NMS-P715 to inhibit the spindle assembly checkpoint kinase Mps1, then imaged as described above. Only mitotic events with clear missegregation (lagging chromosomes and subsequent formation of daughter cells with micronuclei) were analyzed. For both experiments, results represent combined measurements of 100 mother cells from 2 independent experiments.

Test [1] deals with NIH/3T3 cells. Kind of test: Proliferation assay, NIH/3T3. The format is cell-based, mouse. The protocol:
(§2) Proliferation assays. For each condition, cells were seeded in triplicate into 6-well plates at 50,000 cells/well. Compounds were added at the indicated concentrations. At 24-hour intervals, 3 wells were harvested per condition. Cell counting was performed using a TC10 automated cell counter (Bio-Rad). Results are from 3 independent experiments.

Test [2] has as its system HeLa cells. As to the kind of experiment: Proliferation assay, HeLa. The test is classed as cell-based, human. The protocol:
as §2

In another test the target is T1, SRPK1 (Homo sapiens, UniProt Q96SB4).
T1 construct: Reaction Biology (Malvern, Pa.), contract assay
T1 sequence (Q96SB4 whole entry): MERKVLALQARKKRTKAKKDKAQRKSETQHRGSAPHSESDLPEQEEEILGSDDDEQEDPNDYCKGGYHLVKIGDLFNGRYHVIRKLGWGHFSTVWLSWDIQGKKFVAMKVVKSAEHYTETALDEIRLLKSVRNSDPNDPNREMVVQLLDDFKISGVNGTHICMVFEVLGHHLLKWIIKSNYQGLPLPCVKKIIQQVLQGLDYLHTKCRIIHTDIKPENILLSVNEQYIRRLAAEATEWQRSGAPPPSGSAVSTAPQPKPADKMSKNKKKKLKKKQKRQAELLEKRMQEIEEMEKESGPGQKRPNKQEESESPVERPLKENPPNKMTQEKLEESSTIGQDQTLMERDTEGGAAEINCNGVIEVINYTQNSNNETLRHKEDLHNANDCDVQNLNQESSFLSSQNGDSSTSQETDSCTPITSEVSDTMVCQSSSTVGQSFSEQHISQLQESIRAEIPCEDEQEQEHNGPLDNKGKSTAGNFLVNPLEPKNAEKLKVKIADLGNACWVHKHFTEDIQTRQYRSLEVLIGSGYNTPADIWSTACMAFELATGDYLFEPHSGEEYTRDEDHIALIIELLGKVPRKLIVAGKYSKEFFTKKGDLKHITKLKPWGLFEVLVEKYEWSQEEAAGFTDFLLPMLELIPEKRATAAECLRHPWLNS
As to the kind of experiment: Radiometric kinase assay, off-target SRPK1. The test is classed as biochemical. Particulars: off-target from DiscoveRx kinome profiling. The protocol:
(§3) Aurora B and other radiometric kinase assays were performed by Reaction Biology (Malvern, Pa.). Kinome profiling of centrinone and centrinone-B was performed by DiscoveRx (San Diego, Calif.).

The target in another test is FLT4/VEGFR3 (Homo sapiens, UniProt P35916). Kind of test: Radiometric kinase assay, off-target FLT4/VEGFR3. The test is classed as biochemical. The settings on record: off-target from DiscoveRx kinome profiling. The protocol: as §3
Sequence of FLT4/VEGFR3 (P35916 25-1363): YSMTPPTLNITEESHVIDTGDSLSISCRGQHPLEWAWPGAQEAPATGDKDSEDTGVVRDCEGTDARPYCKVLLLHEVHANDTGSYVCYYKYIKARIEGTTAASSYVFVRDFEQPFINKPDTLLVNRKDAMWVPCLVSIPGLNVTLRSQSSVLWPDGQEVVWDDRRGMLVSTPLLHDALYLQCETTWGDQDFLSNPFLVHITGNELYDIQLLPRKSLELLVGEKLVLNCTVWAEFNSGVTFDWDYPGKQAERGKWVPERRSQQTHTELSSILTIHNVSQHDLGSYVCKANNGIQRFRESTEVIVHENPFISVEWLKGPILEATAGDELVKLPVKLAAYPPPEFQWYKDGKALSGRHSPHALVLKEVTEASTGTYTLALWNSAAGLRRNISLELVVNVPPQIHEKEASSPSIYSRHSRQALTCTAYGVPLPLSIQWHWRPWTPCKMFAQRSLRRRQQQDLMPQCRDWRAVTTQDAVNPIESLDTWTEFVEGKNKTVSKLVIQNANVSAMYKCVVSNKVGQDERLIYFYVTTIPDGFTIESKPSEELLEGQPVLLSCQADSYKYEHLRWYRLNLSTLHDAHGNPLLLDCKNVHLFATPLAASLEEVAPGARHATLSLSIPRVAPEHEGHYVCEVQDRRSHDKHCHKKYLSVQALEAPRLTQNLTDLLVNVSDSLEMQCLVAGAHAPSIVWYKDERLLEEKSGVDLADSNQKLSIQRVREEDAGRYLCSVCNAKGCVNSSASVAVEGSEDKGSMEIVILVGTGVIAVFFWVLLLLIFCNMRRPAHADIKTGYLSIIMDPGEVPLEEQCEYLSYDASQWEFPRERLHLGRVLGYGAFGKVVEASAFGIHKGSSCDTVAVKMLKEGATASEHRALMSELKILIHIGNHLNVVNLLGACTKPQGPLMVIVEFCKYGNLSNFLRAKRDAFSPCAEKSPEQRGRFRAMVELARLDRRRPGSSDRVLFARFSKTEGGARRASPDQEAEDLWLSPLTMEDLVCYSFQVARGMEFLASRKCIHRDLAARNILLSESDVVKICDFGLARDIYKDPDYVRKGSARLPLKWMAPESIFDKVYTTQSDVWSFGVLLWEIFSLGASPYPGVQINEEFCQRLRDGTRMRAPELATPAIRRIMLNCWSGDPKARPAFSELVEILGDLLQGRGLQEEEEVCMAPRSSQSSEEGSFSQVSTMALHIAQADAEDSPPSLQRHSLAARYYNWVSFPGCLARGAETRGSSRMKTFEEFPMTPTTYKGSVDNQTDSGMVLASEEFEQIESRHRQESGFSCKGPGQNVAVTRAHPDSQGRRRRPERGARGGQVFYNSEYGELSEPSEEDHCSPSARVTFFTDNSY
In another test the target is T2, human Aurora A (Homo sapiens, UniProt O14965).
T2 construct: purchased Millipore
T2 sequence (O14965 1-403): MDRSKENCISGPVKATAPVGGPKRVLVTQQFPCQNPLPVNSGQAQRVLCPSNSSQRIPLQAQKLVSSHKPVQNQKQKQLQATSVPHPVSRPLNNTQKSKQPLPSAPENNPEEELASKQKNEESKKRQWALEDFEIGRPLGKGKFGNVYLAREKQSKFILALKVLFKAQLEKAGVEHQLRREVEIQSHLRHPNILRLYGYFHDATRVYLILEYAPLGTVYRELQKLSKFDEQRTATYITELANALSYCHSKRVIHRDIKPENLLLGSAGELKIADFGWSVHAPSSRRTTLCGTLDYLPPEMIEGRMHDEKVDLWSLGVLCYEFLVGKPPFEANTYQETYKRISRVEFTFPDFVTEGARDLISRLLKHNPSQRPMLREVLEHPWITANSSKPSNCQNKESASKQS
As to the kind of experiment: Aurora A kinase assay (ADP-Glo). The test is classed as biochemical. The protocol:
LRRASLG)+inhibitors arrayed in dose response (added as described above). […] Detection, measurement and data analysis were performed as described above.
(In ADP-Glo the light output rises with the ADP produced.)

For the next test, the system named is panel of 19 cell lines. As to the kind of experiment: Proliferation after centrosome depletion, panel of cell lines. The test is classed as cell-based. Particulars: panel of 19 cell lines (Table 6). The protocol:
as §2

In test [3] the test system is HeLa cells. Kind of test: Analysis of mitosis, HeLa centrin-GFP H2B-RFP. The test is classed as cell-based, human. Particulars: centrosome-less HeLa cells. Here is the method: as §1
Test [4] concerns NIH/3T3 cells. Kind of test: Cilia formation assay in NIH/3T3 cells. The test is classed as cell-based, mouse. The settings on record: serum-starved NIH/3T3. Here is the method:
Cilia formation assay in NIH/3T3 cells. […] Cells were seeded onto coverslips and starved for 40 hours by replacing their media with DMEM+0.5% defined bovine serum. Cells were then washed with PBS, fixed with 100% methanol (−20° C., 5 minutes), stained with antibodies against γ-tubulin and IFT-88, and mounted onto slides. Image acquisition and deconvolution were performed on the DeltaVision system, as above. Subsequent image processing was performed in ImageJ.

In the next test the test system is centrosomes in cells. As to the kind of experiment: Cellular centrosome depletion (cell line not stated). The test is classed as cell-based. Particulars: cellular activity, FIG. 1A. The protocol: Centriole depletion assay for compound screening. 1,500 NIH/3T3 cells or 3,500 HCT116 cells were seeded into 96-well SCREENSTAR microplates (Greiner) and treated with inhibitors in dose response, added from DMSO stocks. After 3 days, cells were fixed directly in the wells with 100% methanol (−20° C., 10 minutes). The fixed cells were washed with PBS and stained with primary antibodies against γ-tubulin and, for a subset of compounds, Cep192. Cells were then stained with Alexa-488 donkey anti-mouse and Alexa-647 goat anti-rabbit secondary antibodies. Cells were imaged using either a Model 500 LumaScope (Etaluma) or an EVOS FL (Advanced Microscopy Group/Life Technologies), and centriole depletion was determined by scoring the percentage of cells without visible γ-tubulin/Cep192 foci.

By Ki is commonly meant a measure of affinity in units of concentration, obtained from inhibition or displacement. Higher therefore signals a looser hold on the target. Take `COc1c(Nc2cc(C)[nH]n2)nc(Sc2ccc(S(=O)(=O)Cc3cccc([N+](=O)[O-])c3F)cc2F)nc1N1CCOCC1` [Centrinone, 2-((2-fluoro-4-((2-fluoro-3-nitrobenzyl)sulfonyl)phenyl)thio)-5-methoxy-N-(5-methyl-1H-pyrazol-3-yl)-6-morpholinopyrimidin-4-amine]: the “percentage of daughters not dividing within 48 hours” value with RPE1 cells (RPE1, FIG. 18A) is recorded as 1.5%. Moreover, the “0-centrosome progeny of pioneer 1-centrosome mothers arrested” value in the test with RPE1 cells (RPE1, acute treatment) stood at 33.0%. For the same molecule, the “1-centrosome progeny of pioneer 1-centrosome mothers arrested” value in the test with RPE1 cells (RPE1, acute treatment) is given as 25.5%. In addition, the “progeny of pioneer 0-centrosome mothers arrested” value with RPE1 cells (RPE1, acute treatment) is on record as 70%. The proliferation versus controls entry is “identical to controls” with NIH/3T3 cells [1] (NIH/3T3, first two days after addition) and “identical to controls” with HeLa cells [2] (HeLa, first two days after addition). Also, the “cell death per generation explaining reduced proliferation rate” value in the test on NIH/3T3 cells [1] (centrosome-less NIH/3T3, theoretical curves versus measurements) was 15%; in the test on HeLa cells [2] (centrosome-less HeLa, theoretical curves versus measurements), 25%. For the same molecule, the figures for the inhibitory constant (Ki) on SRPK1, at FLT4/VEGFR3 and on human Aurora A were more than 150 nM, 6.29 nM and 171 nM, respectively. Also, the proliferation after treatment entry in the test on panel of 19 cell lines is on record as “continued to proliferate”. For the same molecule, the “cells undergoing persistent mitotic arrest” value in the test with HeLa cells [3] came out at 24%. Moreover, in the test with HeLa cells [3], the “increase in mitotic duration” value was approximately 1 h. Also, the primary cilia entry with NIH/3T3 cells [4] is recorded as “prevents assembly of primary cilia”. The same molecule gave a centrosome depletion at with centrosomes in cells of 100 nM.
